Earlier results, collected in patent US20130150444A1, “MODIFIED RELEASE COMPOSITIONS OF MAGNESIUM VALPROATE” (CADILA HEALTHCARE LIMITED, priority 2011, published 2013).

Settings: in comparison with sodium valproate or valproic acid

magnesium 2-propylvalerate [magnesium valproate]
absorption rate: slower and more regular
